This note sets out measurements from patent US20180344808A1, “HAPTOGLOBIN DERIVATIVE FOR TREATMENT OF SEPSIS AND ACETAMINOPHEN-INDUCED LIVER DAMAGE” (THE FEINSTEIN INSTITUTE FOR MEDICAL RESEARCH, priority 2017, published 2018).

No end group written: not given here.

For orientation: Kd means the equilibrium constant for the complex coming apart.

The target in one test is T1, HMGB1 (Homo sapiens, UniProt P09429).
T1 sequence (P09429 1-215): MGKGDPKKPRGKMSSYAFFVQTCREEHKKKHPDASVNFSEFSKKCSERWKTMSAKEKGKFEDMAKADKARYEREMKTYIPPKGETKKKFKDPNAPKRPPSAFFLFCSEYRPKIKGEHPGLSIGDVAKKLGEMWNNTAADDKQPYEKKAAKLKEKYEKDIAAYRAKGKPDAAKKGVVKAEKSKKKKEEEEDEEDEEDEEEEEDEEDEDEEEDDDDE
As to the kind of experiment: Surface plasmon resonance (BIAcore) analysis of binding to HMGB1. An excerpt:
FIG. 2A-2B: 2A. Human haptoglobin has three phenotypes and contains α and β subunits. 2B. […] Data shown is representative of 3 separate experiments.
(§1) FIG. 6A-6C: 6A. Schematics of haptoglobin (Hp) β and Hp β peptide (SEQ ID NO:1). 6B. […] 6C. […] N=5.
Haptoglobin (Hp) β binds to HMGB1: Human haptoglobin has three phenotypes and contains α and β subunits.
(§2) Haptoglobin β peptide retains the activity to bind and inhibit HMGB1 toxicity. […] (See FIG. 6C).

For test [1], the system named is HMGB1-induced TNF release in primary mouse macrophages. Nature of the test: Inhibition of HMGB1-induced TNF release in primary mouse macrophages. In kind it is cell-based. The note with it: N=5, result in words.
From the text: as §1, §2

Test [2] has as its system HMGB1-induced TNF release in murine macrophage-like RAW 264.7 cells. Nature of the test: Inhibition of HMGB1-induced TNF release in RAW 264.7 cells. In kind it is cell-based. Here is the method:
FIG. 3A-3B: HMGB1 stimulated TNF release in murine macrophage-like RAW 264.7 cells. 3A. The addition of haptoglobin produced a dose-dependent attenuation of the HMGB1-induced TNF release (up to 90% inhibition at 100 μg/ml). 3B. […] N=3-5 experiments. *: P<0.05 vs. HMGB1 alone.

The next test concerns CLP-induced sepsis. As to the kind of experiment: Survival in cecal ligation and puncture (CLP)-induced sepsis. The format is in vivo, mice. The text has this: (§3) Haptoglobin is a complex protein consisting of α and β subunits (Yueh S C et al. J Chromatography, 2007). […] Administration of haptoglobin β subunit protects against lethality in mice with CLP-induced sepsis (CLP survival=85% in haptoglobin β-treated versus 50% in vehicle-treated group; n=22 mice per group, P<0.05) and in experimental acetaminophen-induced liver injury (Survival in haptoglobin β treated group=80% versus 35% in vehicle control group, P<0.05, n=20 mice per group). Screening of a peptide library of the haptoglobin β identified a critical region ([…], residues #278-305 in the B subunit) that retains the ability to inhibit HMGB1-induced TNF release from cultured macrophages. Taken together, these findings reveal a novel mechanism for haptoglobin modulation of the inflammatory action of HMGB1, with significant implications for developing experimental strategies targeting HMGB 1-dependent inflammatory diseases.
N=16 mice/group. […] Recombinant haptoglobin β (10 or 100 μg/mouse) was given once a day for 3 days starting at 24 hours after CLP surgery (N=25 mice/group). (See FIG. 5A-5B).

In test [3] the test system is acetaminophen-induced liver injury. As to the kind of experiment: Survival in experimental acetaminophen-induced liver injury. The format is in vivo. Particulars: mice; vehicle control group 35%; n=20 per group; P<0.05.
From the text: as §3
Acetaminophen-induced liver injury: Administration of haptoglobin β subunit protects against lethality in mice with experimental acetaminophen-induced liver injury (survival in haptoglobin β treated group=80% versus 35% in vehicle control group, P<0.05, n=20 mice per group).

In test [4] the target is T2, Haptoglobin beta subunit (human) (human, UniProt P00738 162-406).
T2 construct: also called haptoglobin β; Hp β
T2 sequence: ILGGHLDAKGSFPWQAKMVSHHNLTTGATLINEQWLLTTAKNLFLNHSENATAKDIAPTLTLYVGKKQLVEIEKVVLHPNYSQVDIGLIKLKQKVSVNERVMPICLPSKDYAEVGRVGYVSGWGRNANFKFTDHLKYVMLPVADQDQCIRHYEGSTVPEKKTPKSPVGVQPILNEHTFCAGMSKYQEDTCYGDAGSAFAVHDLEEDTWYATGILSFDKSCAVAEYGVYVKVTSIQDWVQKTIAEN
As to the kind of experiment: surface plasmon resonance. (In general: In SPR one partner is held on a chip, and binding of the other changes the refractive index at the surface.)

On to “GYVSGWGRNANFKFTDHLKYVMLPVAD [Hpβ peptide]”, for which the dissociation constant Kd on HMGB1 (BIAcore analysis) was around 17000 nM. In addition, in test [1], the “inhibition of HMGB1-induced TNF release” value is on record as “dose-dependently inhibited”.

In turn, “haptoglobin β: Haptoglobin beta subunit (human), SEQ ID NO:3; recombinant” registered an equilibrium dissociation constant (Kd) with HMGB1 (surface plasmon resonance, representative of 3 separate experiments) of 29 nM. Further, the “inhibition of HMGB1-induced TNF release” value in test [2] (result in words) is reported as “as effective as haptoglobin”. The “rescue from death after CLP” value in the test with CLP-induced sepsis (haptoglobin KO mice, doses as low as 100 μg per animal per day, once a day for 3 days starting 24 hours after CLP, N=25 mice/group) was “rescued from death”. For the same molecule, in the test with CLP-induced sepsis (mice with CLP-induced sepsis, vehicle-treated group 50%, n=22 per group, P<0.05), the CLP survival worked out at 85%. In the test with CLP-induced sepsis (wild type mice, 200 μg/mouse injected IP, N=16 mice/group, P<0.05), the “likelihood of survival vs vehicle-treated control after CLP” value is recorded as “twice as likely to survive”. In addition, in test [3], the “Survival in acetaminophen-induced liver injury” value was 80%.

B1: HMGB1 (ligand)
chain: MGKGDPKKPRGKMSSYAFFVQTCREEHKKKHPDASVNFSEFSKKCSERWKTMSAKEKGKFEDMAKADKARYEREMKTYIPPKGETKKKFKDPNAPKRPPSAFFLFCSEYRPKIKGEHPGLSIGDVAKKLGEMWNNTAADDKQPYEKKAAKLKEKYEKDIAAYRAKGKPDAAKKGVVKAEKSKKKKEEEEDEEDEEDEEEEEDEEDEDEEEDDDDE
notes: also called extracellular HMGB1
In test [4], B1 displayed a Kd of 29 nM.

B2: haptoglobin: full-length haptoglobin, acute phase protein with α and β subunits; mature human sequence SEQ ID NO:2 (protein, listed as Homo sapiens)
chain: VDSGNDVTDIADDGCPKPPEIAHGYVEHSVRYQCKNYYKLRTEGDGVYTLNDKKQWINKAVGDKLPECEADDGCPKPPEIAHGYVEHSVRYQCKNYYKLRTEGDGVYTLNNEKQWINKAVGDKLPECEAVCGKPKNPANPVQRILGGHLDAKGSFPWQAKMVSHHNLTTGATLINEQWLLTTAKNLFLNHSENATAKDIAPTLTLYVGKKQLVEIEKVVLHPNYSQVDIGLIKLKQKVSVNERVMPICLPSKDYAEVGRVGYVSGWGRNANFKFTDHLKYVMLPVADQDQCIRHYEGSTVPEKKTPKSPVGVQPILNEHTFCAGMSKYQEDTCYGDAGSAFAVHDLEEDTWYATGILSFDKSCAVAEYGVYVKVTSIQDWVQKTIAEN
For B2, the “inhibition of HMGB1-induced TNF release” value in test [2] (at 100 μg/ml, dose-dependent) is reported as “up to 90%”. Moreover, the “protection in intra-abdominal sepsis (CLP)” value in the test with CLP-induced sepsis (wild type and haptoglobin-gene deficient animals, result in words) is recorded as “confers significant protection”.
